32 compounds from patent publication US20220089609A1, “SUBSTITUTED QUINAZOLINONE DERIVATIVES AND THEIR USE AS POSITIVE ALLOSTERIC MODULATORS OF MGLUR4” (DOMAIN THERAPEUTICS, priority 2018, published 2022) can be followed below.

Counter-ions that a name gives are not always drawn.

The target of the first series is T1, human mGluR4 (hmGluR4) (Homo sapiens, UniProt Q14833).
T1 construct: expressed in transfected cells; host or cells: HEK-293 cells, transient co-transfection by electroporation
T1 sequence (Q14833 33-912): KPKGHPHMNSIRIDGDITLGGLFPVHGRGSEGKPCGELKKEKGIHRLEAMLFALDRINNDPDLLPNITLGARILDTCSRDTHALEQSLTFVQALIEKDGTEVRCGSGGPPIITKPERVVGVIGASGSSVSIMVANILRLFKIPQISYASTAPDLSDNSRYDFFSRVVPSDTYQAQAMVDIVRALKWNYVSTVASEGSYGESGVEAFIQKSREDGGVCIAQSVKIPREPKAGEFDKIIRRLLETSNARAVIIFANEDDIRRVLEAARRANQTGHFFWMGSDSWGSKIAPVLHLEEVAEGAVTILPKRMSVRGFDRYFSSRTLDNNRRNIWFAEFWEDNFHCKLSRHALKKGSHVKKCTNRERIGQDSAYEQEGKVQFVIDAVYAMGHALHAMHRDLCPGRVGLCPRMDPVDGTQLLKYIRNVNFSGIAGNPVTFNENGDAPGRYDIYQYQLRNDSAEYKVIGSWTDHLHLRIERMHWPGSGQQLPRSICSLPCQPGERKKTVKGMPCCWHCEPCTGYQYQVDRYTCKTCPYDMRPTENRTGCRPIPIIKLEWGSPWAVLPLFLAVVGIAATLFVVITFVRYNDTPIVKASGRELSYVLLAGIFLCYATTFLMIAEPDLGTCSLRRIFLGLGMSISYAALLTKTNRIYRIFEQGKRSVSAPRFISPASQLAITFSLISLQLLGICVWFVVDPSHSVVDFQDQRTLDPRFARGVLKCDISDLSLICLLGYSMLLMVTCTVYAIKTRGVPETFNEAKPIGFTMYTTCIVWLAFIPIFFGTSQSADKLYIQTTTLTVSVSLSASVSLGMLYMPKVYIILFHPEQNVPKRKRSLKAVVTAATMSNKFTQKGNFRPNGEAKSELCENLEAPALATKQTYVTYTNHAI
Briefly: Calcium assay EC50 determination, positive allosteric modulator activity on hmGluR4 transiently over-expressed in HEK-293 cells. The series is classed as cell-based. The settings on record: PAM mode with EC20 glutamate; hmGluR4 in HEK-293 cells; intracellular calcium (Fluo4AM); read-out: mGluR4 positive allosteric modulator activity, half maximal effective concentration (EC50). The essentials:
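HEK-293 cells transiently co-transfected with hmGluR4, chimeric G protein and glutamate transporters; Fluo4AM calcium read (ex 485/em 525 nm) on FLIPR Tetra. Compound alone 10 min for agonism, then EC20 glutamate with 3 min recording for PAM activity, versus buffer or EC20 glutamate basal.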
On to `Cc1cc(O[C@@H](C)C2CCOCC2)cc2c(=O)[nH]c(-c3cc4ccsc4cn3)nc12` [Compound 110-S, S-8-Methyl-6-[1-(tetrahydro-pyran-4-yl)-ethoxy]-2-thieno[2,3-c]pyridin-5-yl-3H-quinazolin-4-one], for which the EC50 was no more than 100 nM. For `CS(=O)(=O)c1ccc(CCCOc2ccc3nc(-c4cc5ccsc5cn4)[nH]c(=O)c3c2)cc1` [Compound 60, 6-[3-(4-Methanesulfonyl-phenyl)-propoxy]-2-thieno[2,3-c]pyridin-5-yl-3H-quinazolin-4-one], the EC50 is 100 to 1000 nM. With `Cc1cc(OC2CCC(=O)N(C)C2)cc2c(=O)[nH]c(-c3cc4cccn4cn3)nc12` (centres unmarked) [Compound 118, 8-Methyl-6-[(1-methyl-6-oxo-3-piperidyl)oxy]-2-pyrrolo[1,2-c]pyrimidin-3-yl-3H-quinazolin-4-one], the EC50 is no more than 100 nM. With `Cc1cc(CCCN2CCOCC2)cc2c(=O)[nH]c(-c3cc4ccsc4cn3)nc12` [Compound 99, 8-Methyl-6-(3-morpholin-4-yl-propyl)-2-thieno[2,3-c]pyridin-5-yl-3H-quinazolin-4-one hydrochloride], the EC50 lay within 100 to 1000 nM. Turning to `Cc1cc(O[C@H](C)C2CCOCC2)cc2c(=O)[nH]c(-c3cc(C(F)(F)F)ccn3)nc12` [Compound 111-R, R-8-Methyl-6-[1-(tetrahydro-pyran-4-yl)-ethoxy]-2-(4-trifluoromethyl-pyridin-2-yl)-3H-quinazolin-4-one], the EC50 was in the range of 100 to 1000 nM. Still for that read-out and setting: for `Cc1cc(OCCCc2ccncc2)cc2c(=O)[nH]c(-c3cc4ccsc4cn3)nc12` [Compound 65, 8-Methyl-6-(3-pyridin-4-yl-propoxy)-2-thieno[2,3-c]pyridin-5-yl-3H-quinazolin-4-one hydrochloride] the value was no more than 100 nM; for `O=c1[nH]c(-c2cc(C(F)(F)F)ccn2)nc2c(Cl)cc(CCN3CCOCC3)cc12` [Compound 154, 8-Chloro-6-(2-morpholinoethyl)-2-(4-(trifluoromethyl)pyridin-2-yl)quinazolin-4(3H)-one hydrochloride], 100 to 1000 nM.

Regarding `Cc1cc(CN2CCOC(C)(C)C2)cc2c(=O)[nH]c(-c3cc4sccc4cn3)nc12` [Compound 153, 6-[(2,2-Dimethylmorpholin-4-yl)methyl]-8-methyl-2-thieno[3,2-c]pyridin-6-yl-3H-quinazolin-4-one hydrochloride], the EC50 was no more than 100 nM.

With `Cc1cc(N2CCC3(CCOCC3)CC2)cc2c(=O)[nH]c(-c3cc(C(F)(F)F)ccn3)nc12` [Compound 105, 8-Methyl-6-(3-oxa-9-aza-spiro[5.5]undec-9-yl)-2-(4-trifluoromethyl-pyridin-2-yl)-3H-quinazolin-4-one], the EC50 was no more than 100 nM. Regarding `Cl.O=c1[nH]c(-c2cc3ccsc3cn2)nc2ccc(OCCCc3ccncc3)cc12` [Compound 4, hydrochloride], the EC50 was 100 to 1000 nM. For `Cc1cc(OCC2CCOC2)cc2c(=O)[nH]c(-c3cc(C(F)(F)F)ccn3)nc12` (centres unmarked) [Compound 102, 8-Methyl-6-(tetrahydro-furan-3-ylmethoxy)-2-(4-trifluoromethyl-pyridin-2-yl)-3H-quinazolin-4-one], the EC50 is no more than 100 nM. In the case of `Cc1cccc(-c2nc3ccc(OCCCc4ccncc4)cc3c(=O)[nH]2)n1` [Compound 12, 2-(6-methyl-2-pyridyl)-6-[3-(4-pyridyl)propoxy]-3H-quinazolin-4-one dihydrochloride], the EC50 was in the range of 100 to 1000 nM. With `Cc1cc(N2CCC3(CCOCC3)CC2)nc2c(=O)[nH]c(-c3cc4ccsc4cn3)nc12` [Compound 113], the EC50 was 100 to 1000 nM.

As to `Cc1cc(N2CCC3(CCOCC3)CC2)cc2c(=O)[nH]c(-c3cc4ccsc4cn3)nc12` [Compound 91, 8-Methyl-6-(3-oxa-9-aza-spiro[5.5]undec-9-yl)-2-thieno[2,3-c]pyridin-5-yl-3H-quinazolin-4-one], the EC50 was no more than 100 nM. With `O=c1[nH]c(-c2cc(C(F)(F)F)ccn2)nc2cnc(OCCCc3ccncc3)cc12` [Compound 69, 6-(3-Pyridin-4-yl-propoxy)-2-(4-trifluoromethyl-pyridin-2-yl)-3H-pyrido[3,4-d]pyrimidin-4-one hydrochloride], the EC50 lay within 100 to 1000 nM.

Test system in a further series: not given
Test: not given
Settings: not given
As a reminder, the melting point is the temperature of the solid-liquid transition. In the case of `Cc1cc(O[C@@H](C)C2CCOCC2)cc2c(=O)[nH]c(-c3cc4ccsc4cn3)nc12` [Compound 110-S, S-8-Methyl-6-[1-(tetrahydro-pyran-4-yl)-ethoxy]-2-thieno[2,3-c]pyridin-5-yl-3H-quinazolin-4-one], the melting point lay within 150 to 180 °C. Turning to `CS(=O)(=O)c1ccc(CCCOc2ccc3nc(-c4cc5ccsc5cn4)[nH]c(=O)c3c2)cc1` [Compound 60, 6-[3-(4-Methanesulfonyl-phenyl)-propoxy]-2-thieno[2,3-c]pyridin-5-yl-3H-quinazolin-4-one], the melting point fell in the range of 236 to 237 °C. In the case of `O=c1[nH]c(-c2cccc(C(F)(F)F)n2)nc2ccc(OCCCc3ccncc3)cc12` (as salt: hydrochloride) [Compound 17, 6-[3-(4-pyridyl)propoxy]-2-[6-(trifluoromethyl)-2-pyridyl]-3H-quinazolin-4-one hydrochloride], the melting point lay within 238 to 250 °C. For `Cc1cc(OC2CCC(=O)N(C)C2)cc2c(=O)[nH]c(-c3cc4cccn4cn3)nc12` (centres unmarked) [Compound 118, 8-Methyl-6-[(1-methyl-6-oxo-3-piperidyl)oxy]-2-pyrrolo[1,2-c]pyrimidin-3-yl-3H-quinazolin-4-one], the melting point lay within 220 to 230 °C.

The compound `Cc1cc(CCN2CCOCC2)cc2c(=O)[nH]c(-c3cc4cccn4cn3)nc12` (as salt: hydrochloride) [Compound 124, 8-Methyl-6-(2-morpholin-4-yl-ethyl)-2-pyrrolo[1,2-c]pyrimidin-3-yl-3H-quinazolin-4-one hydrochloride] gave a melting point greater than 250 °C. Same read-out and setting: to `COC1CCN(Cc2cc(C)c3nc(-c4cc5sccc5cn4)[nH]c(=O)c3c2)CC1` (as salt: hydrochloride) [Compound 152, 6-[(4-Methoxy-1-piperidyl)methyl]-8-methyl-2-thieno[3,2-c]pyridin-6-yl-3H-quinazolin-4-one hydrochloride] belongs 205 to 215 °C; to `O=c1[nH]c(-c2cc(C(F)(F)F)ccn2)nc2c(Cl)cc(CCN3CCOCC3)cc12` (as salt: hydrochloride) [Compound 154, 8-Chloro-6-(2-morpholinoethyl)-2-(4-(trifluoromethyl)pyridin-2-yl)quinazolin-4(3H)-one hydrochloride], greater than 250 °C; to `O=c1[nH]c(-c2cc(C3CC3)ccn2)nc2ccc(OCCCc3ccncc3)cc12` (as salt: hydrochloride) [Compound 19, 2-(4-cyclopropyl-2-pyridyl)-6-[3-(4-pyridyl)propoxy]-3H-quinazolin-4-one dihydrochioride], 110 to 156 °C. The same measure, in the same setting: to `Cc1cc(CCN2CCOCC2)nc2c(=O)[nH]c(-c3cc(C(F)(F)F)ccn3)nc12.Cl` belongs 168 to 173 °C; to `Cc1cc(CCN2CCOCC2)cc2c(=O)[nH]c(-c3cc(C(F)(F)F)ccn3)nc12` (as salt: hydrochloride) [Compound 117, 8-methyl-6-(2-morpholinoethyl)-2-[4-(trifluoromethyl)-2-pyridyl]-3H-quinazolin-4-one hydrochloride], greater than 250 °C; to `O=c1[nH]c(-c2cc(Cl)ccn2)nc2ccc(OCCCc3ccncc3)cc12` (as salt: hydrochloride) [Compound 15, 2-(4-chloro-2-pyridyl)-6-[3-(4-pyridyl)propoxy]-3H-quinazolin-4-one hydrochloride], 232 to 241 °C. As to `Cc1cc(CN2CCOCC2)cc2c(=O)[nH]c(-c3cc(C(F)(F)F)ccn3)nc12` (as salt: hydrochloride) [Compound 115, 8-methyl-6-(morpholinomethyl)-2-[4-(trifluoromethyl)-2-pyridyl]-3H-quinazolin-4-one hydrochloride], the melting point is greater than 250 °C. Compound `Cc1cc(CN2CCOC(C)(C)C2)cc2c(=O)[nH]c(-c3cc4sccc4cn3)nc12` (as salt: hydrochloride) [Compound 153, 6-[(2,2-Dimethylmorpholin-4-yl)methyl]-8-methyl-2-thieno[3,2-c]pyridin-6-yl-3H-quinazolin-4-one hydrochloride] came in with a melting point of 220 to 240 °C. Turning to `Cc1cnc(-c2nc3ccc(OCCCc4ccncc4)cc3c(=O)[nH]2)cn1` (as salt: hydrochloride) [Compound 13, 2-(5-methylpyrazin-2-yl)-6-[3-(4-pyridyl)propoxy]-3H-quinazolin-4-one dihydrochloride], the melting point was greater than 250 °C. For the compound `Cc1cccc(-c2nc3ccc(OCCCc4ccncc4)cc3c(=O)[nH]2)n1` (as salt: hydrochloride) [Compound 12, 2-(6-methyl-2-pyridyl)-6-[3-(4-pyridyl)propoxy]-3H-quinazolin-4-one dihydrochloride], the melting point was greater than 250 °C. The same measure, in the same setting: for `Cl.O=c1[nH]c(-c2cc3ccsc3cn2)nc2ccc(OCCCc3ccncc3)cc12` [Compound 4] the value was greater than 250 °C. In turn, `COCC1CCN(Cc2cc(C)c3nc(-c4cc5sccc5cn4)[nH]c(=O)c3c2)CC1` (as salt: hydrochloride) [Compound 157, 6-((4-(Methoxymethyl)piperidin-1-yl)methyl)-8-methyl-2-(thieno[3,2-c]pyridin-6-yl)quinazolin-4(3H)-one hydrochloride] displayed a melting point of 200 to 210 °C. The compound `Cc1cc(CN2CCN(C)CC2)cc2c(=O)[nH]c(-c3cc4ccsc4cn3)nc12` (as salt: hydrochloride) [Compound 132, 8-Methyl-6-[(4-methylpiperazin-1-yl)methyl]-2-thieno[2,3-c]pyridin-5-yl-3H-quinazolin-4-one dihydrochloride] came in with a melting point greater than 250 °C. For the compound `Cc1nc(-c2nc3ccc(OCCCc4ccncc4)cc3c(=O)[nH]2)co1` (as salt: hydrochloride) [Compound 22, 2-(2-Methyl-oxazol-4-yl)-6-(3-pyridin-4-yl-propoxy)-3H-quinazolin-4-one hydrochloride], the melting point was greater than 250 °C.

`Cc1cc(CN2CCC(C(=O)N(C)C)CC2)cc2c(=O)[nH]c(-c3cc4sccc4cn3)nc12` (as salt: hydrochloride) [Compound 156, N,N-Dimethyl-14(8-methyl-4-oxo-2-(thieno[3,2-c]pyridin-6-yl)-3,4-dihydroquinazolin-6-yl)methyl)piperidine-4-carboxamide hydrochloride] gave a melting point of 215 to 230 °C.
